pEC50: −log10 of the molar value. Read-outs that look alike come from different tables or passages of the source.

The values that follow come from US20260116910A1, “POLYCYCLIC COMPOUNDS AND METHODS THEREOF” (HEPAITECH (BEIJING) BIOPHARMA TECHNOLOGY CO., LTD., priority 2021, published 2026).

Experiment [1] deals with T1, human FXR (NR1H4) (Homo sapiens, UniProt Q96RI1).
T1 sequence (Q96RI1 1-476 isoform Q96RI1-1): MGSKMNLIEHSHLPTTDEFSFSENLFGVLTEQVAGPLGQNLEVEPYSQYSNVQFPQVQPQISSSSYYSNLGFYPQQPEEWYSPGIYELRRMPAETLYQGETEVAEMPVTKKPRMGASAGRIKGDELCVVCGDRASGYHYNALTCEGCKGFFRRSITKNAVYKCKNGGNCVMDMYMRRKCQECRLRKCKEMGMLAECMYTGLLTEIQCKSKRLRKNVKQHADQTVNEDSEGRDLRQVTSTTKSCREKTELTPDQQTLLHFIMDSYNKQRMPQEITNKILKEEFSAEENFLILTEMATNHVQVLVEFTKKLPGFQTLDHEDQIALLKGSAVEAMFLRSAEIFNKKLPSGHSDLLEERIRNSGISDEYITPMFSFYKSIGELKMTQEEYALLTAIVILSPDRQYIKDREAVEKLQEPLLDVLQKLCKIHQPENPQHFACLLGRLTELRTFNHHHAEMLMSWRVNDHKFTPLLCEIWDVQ
Briefly: Human FXR (NR1H4) agonist assessment, FXRE-NanoLuc reporter in HEK293T cells. Type of experiment: cell-based. The note with it: for pEC50: read-out: EC50. Here is the method:
As those skilled in the art appreciate, various technologies are available for assessment of FXR activation in accordance with the present disclosure. […] Human FXR (NR1H4) agonist assessment (see, e.g., Yu et al. eLife 2019; 8: e48431): HEK293T cells stably expressing human FXR and containing FXR response element (FXRE)-NanoLuc reporter were cultured in DMEM medium supplemented with 10% FBS and 1% PS, at 37° C. in a humidified atmosphere with 5% CO2. Cells were detached by centrifuging (1000 rpm, 3 min). The pellet was re-suspended in medium, and cell density was adjusted to about 1×10^6 cells/mL. 100 μL suspension was seeded to each well of a white-walled, clear-bottom 96-well microplates (cell plate). Cells in microplates were cultured overnight.
In the following day, cells were grown to higher than 95% density in each well. Culture medium was replaced, and compounds were added to the wells. 0.01% DMSO (v/v) served as negative control. Plates were incubated at 37° C. in 5% CO2 for 24 hr.
In the following day, a 10 μL aliquot of cell culture medium was removed from each well and combined with 40 μL culture medium plus […] assay buffer (containing 20 mM of the luciferase substrate coelenterazine). After 5 min incubation, luminescence was measured using an EnVision plate reader (PerkinElmer).
In some embodiments, gradient diluted solutions of several concentrations were used to treat cells and corresponding responses were used to fit sigmoid function and to derive EC50 in Origin.

Experiment [2] addresses MRGPRX4 (Homo sapiens, UniProt Q96LA9). Briefly: MRGPRX4 activation, Fluo-8 Ca2+ FLIPR assay in HEK293T cells stably expressing MRGPRX4. The note with it: for EC50: MRGPRX4 activation, Ca2+ fluorescence. Type of experiment: cell-based. As to the method: In some embodiments, cells were cultured in poly-D-Lys coated blacked walled, clear-bottom 96-well microplates. HEK293T cells stably expressing MRGPRX4 were cultured in DMEM medium supplemented with 10% FBS and 1% PS, at 37° C. in a humidified atmosphere with 5% CO2. Cells were detached by centrifuging (1000 rpm, 3 min). The pellet was re-suspended in medium, and cell density was adjusted to about 1×10^6 cells/mL. 100 μL suspension was seeded to each well of a microplates (cell plate). Cells in the microplates were cultured overnight. In the following day, cells were grown to higher than 95% density in each well.
Ca^2+ fluorescent dye loading: Fluo-8 AM (Screen Quest Fluo-8 AM Calcium Assay Kit, AAT Bioquest, cat. #: 21083) was diluted in HHBS buffer and adjusted to 2 μM (dye buffer). Medium in each well was changed into 50 μL dye buffer carefully. After incubation for 40-60 min under room temperature, the dye buffer was changed into 50 μL HHBS buffer.
The concentration of solution should be determined according to the protocol settings and experimental needs (e.g., Log[M]=−4, −5, −6, −7, −8, and −9). Prepare 2× serial dilution series of compounds (at least 75 μL per well).
A fluorescent signal baseline was measured using FLIPR®Tetra for 30 s. Then 50 μL of the chemical solution would be added to the cell plate. The fluorescent signal would be measured for another 150 s.
Activity of each compound was calculated by the fluorescence change (dF/F0). Curves were fitted to obtain EC50 values. In some embodiments, at least 3 repeats were performed to obtain the average values. For assessment of a compound, gradient diluted solutions of different concentrations were used to treat cells and corresponding responses were used to fit sigmoid function and to derive EC50 in Origin. In some embodiments, assessed concentrations were or included about 10^−4, 10^−4.5, 10^−5, 10^−5.5, 10^−6, 10^−6.5, 10^−7, 10^−8, and/or 10^−9 M; for example, in many instances, assessed concentrations included about 10^−5, 10^−6, 10^−7 and 10^−8 M. In some embodiments, assessed concentrations were about 10^−4, 10^−4.5, 10^−5, 10^−5.5, 10^−6, 10^−7, 10^−8, and 10^−9 M. In some embodiments, assessed concentrations were about 10^−4, 10^−5, 10^−6, 10^−7, 10^−8, and 10^−9 M. In some embodiments, assessed concentrations were about 10^−4, 10^−4.5, 10^−5, 10^−5.5, 10^−6, and 10^−7 M. In some embodiments, assessed concentrations were about 2000000, 1000000, 500000, 250000, 125000, 62500, 31250, 15625, 7813, 3906 nM. […] In some embodiments, assessed concentrations were about 30000, 10000, 3333, 1111, 370, 123, 41, 14, 4.6, 1.5 nM.

The mark [3] stands for this setting: FXR activation, HEK293T FXRE-NanoLuc reporter, 24 hr.

Chain of MRGPRX4 (Q96LA9 whole entry): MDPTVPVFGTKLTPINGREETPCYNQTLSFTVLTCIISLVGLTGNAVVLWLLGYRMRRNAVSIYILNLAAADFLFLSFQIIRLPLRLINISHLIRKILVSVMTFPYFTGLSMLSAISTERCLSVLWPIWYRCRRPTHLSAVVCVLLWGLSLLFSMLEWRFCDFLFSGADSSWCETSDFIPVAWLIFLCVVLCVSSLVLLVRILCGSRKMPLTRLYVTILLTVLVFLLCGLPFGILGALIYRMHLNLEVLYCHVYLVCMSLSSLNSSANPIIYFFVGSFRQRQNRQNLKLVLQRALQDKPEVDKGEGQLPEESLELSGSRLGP

Regarding `CC[C@H]1[C@@H](O)[C@@H]2[C@H](CC[C@]3(C)[C@@H]([C@H](C)CCNC(=O)NS(=O)(=O)c4ccc(C(C)(C)C(=O)OC)cc4)CC[C@@H]23)[C@@]2(C)CCCC[C@@H]12` [5-9], in experiment [1] (setting [3]), the “Efficacy (maximum measured induction of NanoLuc, normalized to CDCA set as 100%)” value is on record as “B (300%<efficacy <=400%)” and the pEC50 was over 6.00.

Turning to `CC[C@H]1[C@@H](O)[C@@H]2[C@H](CC[C@]3(C)[C@@H]([C@H](C)CCNC(=O)NS(=O)(=O)c4ccc(C(F)(F)F)cc4)CC[C@@H]23)[C@@]2(C)CCCC[C@@H]12` [5-19], in experiment [1] (setting [3]), the “Efficacy (maximum measured induction of NanoLuc, normalized to CDCA set as 100%)” value was “C (100%<efficacy <=300%)” and the pEC50 was over 6.00.

For the molecule `CC[C@H]1[C@@H](O)[C@@H]2[C@H](CC[C@]3(C)[C@@H]([C@H](C)CCNC(=O)NS(=O)(=O)C[C@]45CCC(CC4=O)C5(C)C)CC[C@@H]23)[C@@]2(C)CCCC[C@@H]12` [5-27], in experiment [1] (setting [3]), the “Efficacy (maximum measured induction of NanoLuc, normalized to CDCA set as 100%)” value is “A (efficacy >400%)” and the pEC50 is over 6.00.

Take `CC[C@H]1[C@@H](O)[C@@H]2[C@H](CC[C@]3(C)[C@@H]([C@H](C)CCN)CC[C@@H]23)[C@@]2(C)CCCC[C@@H]12` [6-1]: in experiment [1] (setting [3]), the “Efficacy (maximum measured induction of NanoLuc, normalized to CDCA set as 100%)” value is “B (300%<efficacy <=400%)” and the pEC50 is over 6.00.

Turning to `CC[C@H]1[C@@H](O)[C@@H]2[C@H](CC[C@]3(C)[C@@H]([C@H](C)CCNC(=S)NS(=O)(=O)c4ccc(C(C)(C)CF)cc4)CC[C@@H]23)[C@@]2(C)CCCC[C@@H]12` [7-2], the “Efficacy (maximum measured induction of NanoLuc, normalized to CDCA set as 100%)” value in experiment [1] is “B (key: A: efficacy >400%; B: 300%<efficacy <=400%; C: 100%<efficacy <=300%; D: efficacy <=100%)”. Besides, the pEC50 in experiment [1] (setting [3]) is over 6.00.

Turning to `C[C@H](CCC(=O)O)[C@H]1CC[C@H]2[C@@H]3[C@H](O)C[C@@H]4C[C@H](O)CC[C@]4(C)[C@H]3CC[C@]12C` [CDCA, chenodeoxycholic acid, reference compound], the “MRGPRX4 activation, fluorescence change (dF/F0), Average” value in experiment [2] (Conc. (Log[M]) −4) is on record as 1.098; in experiment [2] (Conc. (Log[M]) −4.5) it was 0.586; in experiment [2] (Conc. (Log[M]) −5) it was 0.082; in experiment [2] (Conc. (Log[M]) −5.5) it was −0.017; in experiment [2] (Conc. (Log[M]) −6) it was −0.057; in experiment [2] (Conc. (Log[M]) −7), −0.044. The “MRGPRX4 activation, fluorescence change (dF/F0), Average” value is −0.049 in experiment [2] (Conc. (Log[M]) −8) and −0.070 in experiment [2] (Conc. (Log[M]) −9).

In the case of `C[C@H](CCC(=O)O)[C@H]1CC[C@H]2[C@@H]3CC[C@@H]4C[C@H](O)CC[C@]4(C)[C@H]3C[C@H](O)[C@]12C` [DCA, deoxycholic acid, reference compound], the “Activation (%)” value in experiment [2] (E3-8-1, 5 nM, n = 1) worked out at 1.93%; in experiment [2] (E3-8-1, 5 nM, n = 2) it was 0.08%; in experiment [2] (E3-8-1, 15 nM, n = 1), 1.01%; in experiment [2] (E3-8-1, 15 nM, n = 2) it was 0.39%; in experiment [2] (E3-8-1, 46 nM, n = 1) it was 2.24%; in experiment [2] (E3-8-1, 46 nM, n = 2) it was 0.70%. Further, the “Activation (%)” value is listed as 3.48% in experiment [2] (E3-8-1, 412 nM, n = 1); 0.70% in experiment [2] (E3-8-1, 412 nM, n = 2); 14.9% in experiment [2] (E3-8-1, 1235 nM, n = 1); 6.58% in experiment [2] (E3-8-1, 1235 nM, n = 2); 37.5% in experiment [2] (E3-8-1, 3704 nM, n = 1); 30.1% in experiment [2] (E3-8-1, 3704 nM, n = 2). For the same molecule, the “Activation (%)” value in experiment [2] (E3-8-1, 11111 nM, n = 1) is 73.8%; in experiment [2] (E3-8-1, 11111 nM, n = 2), 56.4%; in experiment [2] (E3-8-1, 33333 nM, n = 1) it was 95.1%; in experiment [2] (E3-8-1, 33333 nM, n = 2), 98.5%; in experiment [2] (E3-8-1, 100000 nM, n = 1), 96.4%; in experiment [2] (E3-8-1, 100000 nM, n = 2) it was 107.2%.

Turning to `CC[C@H]1[C@@H](O)[C@@H]2[C@H](CC[C@]3(C)[C@@H]([C@H](C)CCC(=O)O)CC[C@@H]23)[C@@]2(C)CC[C@@H](O)C[C@@H]12` [OCA, obeticholic acid, reference compound], the “Activation (%)” value came to 3.48% in experiment [2] (E3-8-1, 3906 nM, n = 1); 4.41% in experiment [2] (E3-8-1, 3906 nM, n = 2); 3.48% in experiment [2] (E3-8-1, 7813 nM, n = 1); 4.10% in experiment [2] (E3-8-1, 7813 nM, n = 2); 6.58% in experiment [2] (E3-8-1, 15625 nM, n = 1); 9.06% in experiment [2] (E3-8-1, 15625 nM, n = 2). Moreover, the “Activation (%)” value in experiment [2] (E3-8-1, 31250 nM, n = 1) is 13.7%; in experiment [2] (E3-8-1, 31250 nM, n = 2) it was 25.8%; in experiment [2] (E3-8-1, 62500 nM, n = 1) it was 65.7%; in experiment [2] (E3-8-1, 62500 nM, n = 2) it was 49.9%; in experiment [2] (E3-8-1, 125000 nM, n = 1) it was 100.4%; in experiment [2] (E3-8-1, 125000 nM, n = 2), 85.8%. Also, the “Activation (%)” value in experiment [2] (E3-8-1, 250000 nM, n = 1) worked out at 104.4%; in experiment [2] (E3-8-1, 250000 nM, n = 2) it was 100.4%; in experiment [2] (E3-8-1, 500000 nM, n = 1), 138.8%; in experiment [2] (E3-8-1, 500000 nM, n = 2) it was 110.9%; in experiment [2] (E3-8-1, 1000000 nM, n = 1), 151.8%; in experiment [2] (E3-8-1, 1000000 nM, n = 2), 149.6%. The “Activation (%)” value in experiment [2] (E3-8-1, 2000000 nM, n = 1) is on record as 191.4%; in experiment [2] (E3-8-1, 2000000 nM, n = 2) it was 158.9%. Besides, the EC50 in experiment [2] (no activation in tested range reported as III, read-out: Activity (EC50 μM)) was under 50 µM; in experiment [2] (read-out: Activity (EC50 μM), value in parentheses), 37 µM.

The pEC50 is the EC50 on a negative log10 scale, so that one unit is a factor of ten. As a reminder, the EC50 is the concentration that produces a half-maximal response.
